Experimental data published in the supplement of paper PMC11208160.

Assay: recombinant barcode read abundance after kanamycin selection (control-corrected) (log10(CPM+1)); higher = more efficient recombination; sequences stand for … in AGTGCAGAGAAAATCGGCCAGTTTTCTCTGCCTGCAGTCCGCATGCCGT…AGATTTATGCAGCGGACTGCCTTTCTCCCAAAGTGATAAACCGGACAGTATCATGGACCGGTTTTCCCGGTAATCCGTATTTGCAAGGTTGGTTTCACT; site = the 11-nt target
Outline: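 The screen was pooled in E. coli and paired targets with IS621 bridge RNA target-binding loops. Recombination efficiency is taken from barcode counts per million at recombinant junctions, averaged and adjusted against the control. Values, in the form log10(CPM+1), come from duplicate plating on chloramphenicol/ampicillin LB agar or on chloramphenicol/ampicillin/kanamycin with 0.1 mM IPTG.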
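Also: IS621 recombinase and bridge RNA in Escherichia coli cells.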

Sequence	recombinant barcode read abundance (log10)
GTGTATCCTTGGGTTCTAACCTGTTGCAT (site GTGTGTCCTAT)	0.0301
GTGTATCCTTGGGTTCTAACCTGTTGCAT (site GTGTTTCCTAT)	0.0918
GTGTGAACTTGGGTTCTAACCTGTTGCCG (site GAGTTAACTCG)	0.0504
GTGTGAACTTGGGTTCTAACCTGTTGCCG (site GTGTGAACTCG)	0.992
GTGTTTGCTTGGGTTCTAACCTGTTGCCT (site GAGTTTGCTAG)	0.0456
GTGTTTGCTTGGGTTCTAACCTGTTGCCT (site GCGTTTGCTAG)	0.0586
GTGTTTGCTTGGGTTCTAACCTGTTGCCT (site GGGTTTGCTAG)	0.0616
GTGTTTGCTTGGGTTCTAACCTGTTGCCT (site GTGTTTGCTAG)	0.596
GTTAGAACTTGGGTTCTAACCTGTTGCTT (site CCATTGTCTCG)	0.0117
GTTAGAACTTGGGTTCTAACCTGTTGCTT (site GTTAGAACTAA)	0.123
GTTCAAACTTGGGTTCTAACCTGTTGCAT (site ATTCAAACTAG)	0.245
GTTCAAACTTGGGTTCTAACCTGTTGCAT (site GTTCAAACTAT)	1.2
GTTCAGACTTGGGTTCTAACCTGTTGCCT (site GTACAGACTAG)	1.15
GTTCAGACTTGGGTTCTAACCTGTTGCCT (site GTCCAGACTAG)	0.948
GTTCAGACTTGGGTTCTAACCTGTTGCCT (site GTGCAGACTAG)	0.0632
GTTCAGACTTGGGTTCTAACCTGTTGCCT (site GTTCAGACTAG)	1.58
GTTCCCTCTTGGGTTCTAACCTGTTGCTT (site GCTCACTCTAA)	0.245
GTTCCCTCTTGGGTTCTAACCTGTTGCTT (site GTTCCCTCTAA)	1.9
GTTCGGACTTGGGTTCTAACCTGTTGCGG (site GATCGGACTCC)	0.634
GTTCGGACTTGGGTTCTAACCTGTTGCGG (site GTTCGGACTCC)	2.69
GTTGCGGCTTGGGTTCTAACCTGTTGCCT (site GTTACGGCTAG)	0.44
GTTGCGGCTTGGGTTCTAACCTGTTGCCT (site GTTCCGGCTAG)	0.0471

Sequence	recombinant barcode read abundance (log10)
GTTGCGGCTTGGGTTCTAACCTGTTGCCT (site GTTGCGGCTAG)	0.898
GTTGCGGCTTGGGTTCTAACCTGTTGCCT (site GTTTCGGCTAG)	0.34
GTTGGAGCTTGGGTTCTAACCTGTTGCAG (site GTTGGAGCTCT)	2.24
GTTGGAGCTTGGGTTCTAACCTGTTGCAG (site TATGGAGCTCT)	0.146
GTTGGAGCTTGGGTTCTAACCTGTTGCCT (site GTTAGAGCTAG)	1.97
GTTGGAGCTTGGGTTCTAACCTGTTGCCT (site GTTCGAGCTAG)	0.487
GTTGGAGCTTGGGTTCTAACCTGTTGCCT (site GTTGGAGCTAG)	2.35
GTTGGAGCTTGGGTTCTAACCTGTTGCCT (site GTTTGAGCTAG)	0.304
GTTTAGTCTTGGGTTCTAACCTGTTGCCT (site GTTTAATCTAG)	0.159
GTTTAGTCTTGGGTTCTAACCTGTTGCCT (site GTTTAGTCTAG)	1.01
GTTTATACTTGGGTTCTAACCTGTTGCGT (site GATGATACTAC)	0.0203
GTTTATACTTGGGTTCTAACCTGTTGCGT (site GTTTATACTAC)	0.749
GTTTCAACTTGGGTTCTAACCTGTTGCCA (site CAACACCCTAT)	0.0582
GTTTCAACTTGGGTTCTAACCTGTTGCCA (site GTTTCAACTTG)	0.061
GTTTCAACTTGGGTTCTAACCTGTTGCGT (site AAGAACTCTCG)	0.18
GTTTCAACTTGGGTTCTAACCTGTTGCGT (site GTTTCAACTAC)	0.729
GTTTCCTCTTGGGTTCTAACCTGTTGCCG (site GGATCCTCTCG)	0.251
GTTTCCTCTTGGGTTCTAACCTGTTGCCG (site GTTTCCTCTCG)	0.78
GTTTGACCTTGGGTTCTAACCTGTTGCTT (site GTTTGACCTAA)	0.532
GTTTGACCTTGGGTTCTAACCTGTTGCTT (site GTTTGCCCTAA)	0.229
GTTTGACCTTGGGTTCTAACCTGTTGCTT (site GTTTGGCCTAA)	0.171
GTTTGACCTTGGGTTCTAACCTGTTGCTT (site GTTTGTCCTAA)	0.0874

Sequence	recombinant barcode read abundance (log10)
GTTTGGACTTGGGTTCTAACCTGTTGCTA (site GTTTGGACTCA)	0.178
GTTTGGACTTGGGTTCTAACCTGTTGCTA (site GTTTGGACTTA)	0.904
GTTTGGTCTTGGGTTCTAACCTGTTGCCT (site GTTTGATCTAG)	0.285
GTTTGGTCTTGGGTTCTAACCTGTTGCCT (site GTTTGCTCTAG)	0.0727
GTTTGGTCTTGGGTTCTAACCTGTTGCCT (site GTTTGGTCTAG)	0.405
GTTTGGTCTTGGGTTCTAACCTGTTGCCT (site GTTTGTTCTAG)	0.0972
GTTTGTTCTTGGGTTCTAACCTGTTGCCT (site GTTTGATCTAG)	0.0239
GTTTGTTCTTGGGTTCTAACCTGTTGCCT (site GTTTGCTCTAG)	0.0623
GTTTGTTCTTGGGTTCTAACCTGTTGCCT (site GTTTGGTCTAG)	0.237
GTTTGTTCTTGGGTTCTAACCTGTTGCCT (site GTTTGTTCTAG)	0.254
TAAACAGCTTGGGTTCTAACCTGTTGCCT (site TAAACAGCTAG)	0.0976
TAAACAGCTTGGGTTCTAACCTGTTGCCT (site TACACAGCTAG)	0.00929
TAAACAGCTTGGGTTCTAACCTGTTGCCT (site TAGACAGCTAG)	0.171
TAAACAGCTTGGGTTCTAACCTGTTGCCT (site TATACAGCTAG)	0.0779
TAAAGAGCTTGGGTTCTAACCTGTTGCGG (site TAAAGAGCTCC)	1.57
TAAAGAGCTTGGGTTCTAACCTGTTGCGG (site TACAGAGCTCC)	0.153
TAAAGAGCTTGGGTTCTAACCTGTTGCGG (site TAGAGAGCTCC)	0.109
TAAAGAGCTTGGGTTCTAACCTGTTGCGG (site TATAGAGCTCC)	0.236
TAACCCACTTGGGTTCTAACCTGTTGCCT (site TAACCCACTAG)	1.1
TAACCCACTTGGGTTCTAACCTGTTGCCT (site TTACGCACTAG)	0.334
TAACCTACTTGGGTTCTAACCTGTTGCAT (site TAACATACTAT)	0.0358
TAACCTACTTGGGTTCTAACCTGTTGCAT (site TAACCTACTAT)	0.802

Sequence	recombinant barcode read abundance (log10)
TAACCTACTTGGGTTCTAACCTGTTGCAT (site TAACGTACTAT)	0.169
TAACCTACTTGGGTTCTAACCTGTTGCAT (site TAACTTACTAT)	0.0519
TAACGATCTTGGGTTCTAACCTGTTGCAT (site TAACGATCTAT)	0.497
TAACGATCTTGGGTTCTAACCTGTTGCAT (site TAACGGTCTAA)	0.0405
TAACGGTCTTGGGTTCTAACCTGTTGCTT (site TAACGATCTAT)	0.44
TAACGGTCTTGGGTTCTAACCTGTTGCTT (site TAACGGTCTAA)	1.09
TAACGTACTTGGGTTCTAACCTGTTGCGG (site TAACGTACTCC)	1.41
TAACGTACTTGGGTTCTAACCTGTTGCGG (site TAACGTCCTAC)	0.113
TAACTCTCTTGGGTTCTAACCTGTTGCCT (site TAACTCTCTAG)	1.05
TAACTCTCTTGGGTTCTAACCTGTTGCCT (site TCACTCTCTAG)	0.0372
TAACTCTCTTGGGTTCTAACCTGTTGCCT (site TGACTCTCTAG)	0.0157
TAACTCTCTTGGGTTCTAACCTGTTGCCT (site TTACTCTCTAG)	0.145
TAACTGTCTTGGGTTCTAACCTGTTGCTT (site CCGTCTACTTG)	0.121
TAACTGTCTTGGGTTCTAACCTGTTGCTT (site TAACTGTCTAA)	1.74
TAACTTACTTGGGTTCTAACCTGTTGCCT (site TAACTTACTAG)	0.185
TAACTTACTTGGGTTCTAACCTGTTGCCT (site TAGCTTACTCG)	0.0408
TAAGCCTCTTGGGTTCTAACCTGTTGCTG (site TAAGCCTCTCA)	2.54
TAAGCCTCTTGGGTTCTAACCTGTTGCTG (site TAAGCTACTCA)	0
TAAGGTCCTTGGGTTCTAACCTGTTGCTA (site GGAGGTCCTTA)	0.0326
TAAGGTCCTTGGGTTCTAACCTGTTGCTA (site TAAGGTCCTTA)	1.81
